Experimental data taken from US6391303B1, “Methods and compositions for inducing oral tolerance in mammals” (Emisphere Technologies, Inc., priority 1996, dated 2002).

Key:
DTH response to SRBC = assay: Delayed Type Hypersensitivity (DTH) footpad thickness test in mice fed SRBC with delivery agent; type: in vivo, BALB/c mice; details: single oral dose 2.5×10^9 SRBC + delivery agent 600 mg/Kg; versus unfed control and SRBC alone
Protocol: (§1) Five female BALB/c mice were fed a single dose suspension of 2.5×10^9 sheep red blood cells (SRBC)+E94 (600 mg/Kg) in Phosphate Buffered Saline (PBS), 0.1 M phosphate and 0.15 M sodium chloride, pH 7.2. Seven days after completion of oral dosing, mice were primed by footpad injection of 1×10^7 SRBC. They were bled on day 14. On day 21 the mice were tested in a Delayed Type Hypersensitivity (DTH) test through challenge by injection in the footpad not previously used in priming with 1×10^8 SRBC. Footpad thickness was measured before and 24 hours after challenge using a Vernier caliper. On day 28 they were bled again. Sera were placed into Eppendorf tubes and assayed for anti-SRBC IgM (days 14 and 28) and anti-SRBC IgG (day 28) by the direct and indirect hemagglutination assays, respectively. (See assay description below.) Prior to assaying, the samples were heat inactivated at 56/C. for 60 minutes. Assay data for Example 1 are found in FIG. 2.
Five female BALB/c mice were fed a single dose suspension of 2.5×10^9 sheep red blood cells (SRBC)+[…] (600 mg/Kg) as described in Example 7. Seven days after completion of oral dosing, mice were primed by footpad injection of 1×10^7 SRBC. On day 14. footpad thickness was measured according to the Delayed Type Hypersensitivity (DTH) method outlined in Example 1. The DTH data for Example 8 are found in FIG. 8. […]

[1] = tested on: anti-SRBC serum IgG antibodies; assay: Indirect hemagglutination assay for anti-SRBC serum IgG in mice fed SRBC with delivery agent; type: in vivo, BALB/c mice
Protocol: as §1, with “bled again. […] (See assay” for “bled again. Sera were placed into Eppendorf tubes and assayed for anti-SRBC IgM (days 14 and 28) and anti-SRBC IgG (day 28) by the direct and indirect hemagglutination assays, respectively. (See assay”, “FIG. 2. […]” for “FIG. 2.”
a) In a 15 ml tube, add 11μ of goat anti-mouse IgG (Fcy specific) (2.3 mg/ml) to 5.05 ml PBS (1/460 dilution; approximate amount needed per plate) In a second tube, add 4μ of goat anti-rabbit IgG (Fc specific) to 1.8 ml of PBS approximate amount needed (per plate) […]

[2] = tested on: DTH response to ovalbumin; assay: DTH footpad thickness assay in mice fed ovalbumin with delivery agent; type: in vivo, BALB/c mice; details: single oral dose 1.0 mg ovalbumin with or without 600 mg/kg delivery agent; SC challenge ovalbumin/CFA week 3; versus unfed
Protocol: A stock solution of ovalbumin was prepared by dissolving Ovalbumin, 10 mg/ml in 10 mM phosphate buffer (pH 7.4). This solution was diluted 2-fold and used to provide 1.0 mg in a volume of 0.2 ml. Five BALB/c mice were administered a single oral dose of 1.0 mg ovalbumin per mouse with 600 mg/kg of E702 delivery agent.
Challenge was achieved by subcutaneous (SC) injection of 0.1 mg ovalbumin with 50% Complete Freund's Adjuvant (CFA) at week 3. DTH assay was performed as described in Examples 1 and 8. Assay data for Example 10 are found in FIG. 9.

[3] = tested on: anti-ovalbumin IgG antibodies; assay: ELISA for serum anti-ovalbumin IgG in mice fed ovalbumin with delivery agent and challenged with ovalbumin in CFA; type: in vivo, BALB/c mice; details: for serum anti-ovalbumin IgG titer at week 4: single oral dose 25 mg ovalbumin with or without 600 mg/kg delivery agent, SC challenge with ovalbumin/CFA week 1, versus unfed; for serum anti-ovalbumin IgG titer at week 12: two oral doses 1 mg ovalbumin (weeks 0 and 4) with or without 600 mg/kg delivery agent, IM challenge with ovalbumin/CFA week 9
Protocol: A stock solution was prepared by dissolving Ovalbumin, 10 mg/ml, in 10 mM phosphate buffer (pH 7.4). This solution was diluted with buffer to provide 1.0 mg in a volume of 0.2 ml. Ten BALB/c female mice were administered two oral doses of 1 mg ovalbumin per mouse with 600 mg/kg of E94 delivery agent at weeks 0 and 4.
Systemic challenge was achieved by intramuscular (IM) injection of 2 mg/ml ovalbumin with 50% Complete Freund's Adjuvant (CFA) at week 9. Serum samples were collected at week 12 and assayed for anti-ovalbumin total IgG isotypes as described in Example 4 utilizing ovalbumin antigen instead of HA antigen. Assay data for Example 5 are found in FIG. 5.
A stock solution of ovalbumin was prepared by dissolving Ovalbumin, 125 mg/ml, in 10 mM phosphate buffer (pH 7.4). This solution was used to provide 25 mg in a volume of 0.2 ml. Five BALB/c mice were administered a single oral dose of 25 mg ovalbumin per mouse with 600 mg/kg of E94 delivery agent.
Challenge was achieved by subcutaneous (SC) injection of 0.1 mg ovalbumin with 50% Complete Freund's Adjuvant (CFA) at week 1. Serum samples were collected at week 4 and assayed for anti-ovalbumin total IgG isotypes as described in Example 5. Assay data for Example 6 are found in FIG. 6.

[4] = tested on: Experimental Autoimmune Encephalomyelitis (EAE); details: for mean day of onset of paralysis: single oral dose 1.0 mg MBP alone or with delivery agent, day after challenge; for clinical disease (Mean Clinical Score) of EAE: single oral dose 1.0 mg MBP with delivery agent, footpad challenge 0.05 mg MBP/CFA, scale 0 to 5
Protocol: Two days after the (last) oral dose, all groups were challenged in the footpad with 0.05 mg of MBP emulsified with Complete Freund's Adjuvant containing Mycobacterium tuberculosis H37Ra, 4 mg/ml. Clinical signs of disease were observed starting on Day 11 after the challenge and rated on a scale of 0 (no disease) to 5 (death).

[5] = tested on: anti-influenza antibodies (anti-HA); assay: Hemagglutination inhibition assay of pooled sera of primed mice fed influenza antigen with delivery agent; details: primed s.c. 5 μg vaccine day 0, oral 60 μg influenza antigen + 750 mg/kg delivery agent day 21
Protocol: Sera were collected every two weeks, pooled, and assayed for hemagglutination inhibition.
Hemagglutination Inhibition Assay for Anti-HA Antibodies:
If duplicates differ by one dilution, take the average. If they differ by more than one dilution, repeat the assay.
14) This titer provides the dilution of virus suspension which contains one HA unit per 50 μl. Divide this titer by 8 to get the dilution which will contain 4 HA units per 0.025 μl for the actual Hemagglutination Inhibition (HI) assay.
RDE* treat all test sera, reference sera and negative control sera on the day before the HI assay will be done.
Use flexible plates. Mark columns for duplicate dilution series of each test and control serum sample (normal naive serum and positive reference anti-serum). The plate should have 11 columns per row for dilutions plus column 12 for RBC alone.
To all wells, except column 1, add 25 μl of PBS.
To column 1 wells, add 50 μl of the appropriate RDE-treatment serum (test, positive, or negative control) sample.
Serially 2× dilute 25 μl of the sera across to column 11, mixing 7× per dilution.
Add 25 μl of diluted virus (containing 4 HA units per 25 μl) to all serum dilution wells, columns 1-11. Add 25 μl of PBS to column 21.
Cover plate, mix briefly on shaker, and incubate at r.t. for 30 minutes.7. […]
Read patterns immediately. […]

[6] = tested on: anti-SRBC serum IgM antibodies; assay: Direct hemagglutination assay for anti-SRBC serum IgM in mice fed SRBC with delivery agent; type: in vivo, BALB/c mice
Protocol: as §1, with “FIG. 2. […]” for “FIG. 2.”
a) Dilute 10μ of sera with 190μ of PBS, pH 7.2 (1/20) b) On a rigid, U-bottom microtiter plate, mark wells across the rows for dilutions of samples 40; 80; 160; . . . […]

[7] = single oral dose SRBC + delivery agent 600 mg/Kg, versus unfed control (Comparative Example D)

| Molecule | DTH response (footpad thickness), Day 14 (DTH response to SRBC) | DTH response (footpad thickness), week 5 [2] | serum anti-ovalbumin IgG titer at week 4 [3] | serum anti-ovalbumin IgG titer at week 12 [3] | mean day of onset of paralysis [4] [days] | clinical disease (Mean Clinical Score) of EAE [4] | further results |
| --- | --- | --- | --- | --- | --- | --- | --- |
| O=C(O)CCCc1ccc(NS(=O)(=O)c2ccccc2)cc1 [E198, 4-[4-(N-benzenesulfonyl)]aminophenyl butyric acid] | suppressed the DTH response on Day 14 relative to unfed control (Comparative Example L) significantly more than without delivery agent | – | – | – | – | – | – |
| COc1ccccc1C(=O)Nc1ccc(CCC(=O)O)cc1 [E594, 3-[4-(N-2 methoxybenzoyl)]aminophenyl propionic acid] | suppressed the DTH response on Day 14 relative to unfed control (Comparative Example L) significantly more than without delivery agent | – | – | – | – | – | anti-SRBC IgG titer, Day 14 ([1]; single oral dose 2.5×10^9 SRBC + delivery agent 600 mg/Kg, versus unfed control and SRBC alone): suppressed IgG on Day 14 relative to unfed control (Comparative Example K) significantly more than without delivery agent |
| Ovalbumin: Ovalbumin antigen fed orally alone, without delivery agent, as comparative example | – | not suppressed | suppression was not statistically significant | the same as in mice given the intramuscular dose alone | – | – | – |
| O=C(N[C@@H](Cc1ccccc1)C(=O)O)c1ccccc1O [E94, N-salicyloyl phenylalanine] | – | – | significantly suppressed serum anti-Ova IgG titers | significantly suppressed compared to both unfed and antigen-alone fed | 15 | suppression of clinical disease | anti-SRBC IgG titer, Day 28 [1, 7]: lower than the Comparative Example D control (90% significance); suppression of anti-influenza antibody production (HI titer) relative to control fed only influenza antigen [5]: more than 2 fold; anti-SRBC IgM titer, Day 14 ([6]; single oral dose 2.5×10^9 SRBC + delivery agent 600 mg/Kg, primed day 7, versus unfed control and SRBC alone): suppressed IgM on Day 14 relative to unfed control (Comparative Example D) significantly more than without delivery agent; anti-SRBC IgM titer, Day 28 [6, 7]: still lower than that for the Comparative Example D control (90% significance) |
| COc1cccc(C(=O)Nc2ccc(CCC(=O)O)cc2)c1OC [E702, 3-[4-(N-2,3-dimethoxybenzoyl)]aminophenyl propionic acid] | – | significantly suppressed response in the DTH | – | – | 15 | suppression of clinical disease | – |
| MBP: Myelin Basic Protein, encephalitogenic antigen fed orally alone as comparison in the EAE model (protein, UniProt P02686 1-304, looked up) Myelin basic protein: MGNHAGKRELNAEKASTNSETNRGESEKKRNLGELSRTTSEDNEVFGEADANQNNGTSSQDTAVTDSKRTADPKNAWQDAHPADPGSRPHLIRLFSRDAPGREDNTFKDRPSESDELQTIQEDSAATSESLDVMASQKRPSQRHGSKYLATASTMDHARHGFLPRHRDTGILDSIGRFFGGDRGAPKRGSGKDSHHPARTAHYGSLPQKSHGRTQDENPVVHFFKNIVTPRTPPPSQGKGRGLSLSRFSWGAEGQRPGFGYGGRASDYKSAHKGFKGVDAQGTLSKIFKLGGRDSRSGSPMARR | – | – | – | – | 13 | – | – |
